Laboratory results published in patent US20220387485A1, “METHODS OF TREATING CANCER WITH A COMBINATION OF A PLATINUM-BASED AGENT AND AN ANTI-TISSUE FACTOR ANTIBODY-DRUG CONJUGATE” (priority 2019, published 2022).

Key:
[1] = system: HuPrime® cervical xenograft model CV1248 [R4P5]; experiment: Cervical cancer PDX mouse model, tisotumab vedotin with cisplatin (Example 1); assay type: in vivo, BALB/c nude mice; conditions: single agent; for Tumor growth (FIG. 1A-C): tisotumab vedotin 2 mg/kg and 4 mg/kg day 0, 7, cisplatin 4 mg/kg day 0, 7, 14, intravenous; for Survival (FIGS. 1D and 1E): tisotumab vedotin 2 mg/kg and 4 mg/kg, cisplatin 4 mg/kg, tumor size cut-off 1000 mm^3
Protocol: The in vivo anti-tumor efficacy of tisotumab vedotin in combination with cisplatin was evaluated in a patient-derived xenograft (PDX) mouse model in BALB/c nude mice (Crown Bioscience Inc.). Xenografts were derived from tumor specimens from cancer patients. Establishment and characterization of the PDX model was performed following primary implantation into nude mice. Tumor xenografts were passaged approximately three to five times until establishment of stable growth patterns. Tumor fragments were obtained from xenografts in serial passage in nude mice. Tumors were cut into fragments of 2-3 mm diameter and placed in phosphate-buffered saline (PBS) until subcutaneous implantation. A cervical cancer PDX model (HuPrime® cervical xenograft model CV1248 [R4P5]; Crown Bioscience Inc.) was used in this experiment. Tumor size was determined by caliper measurement at least two times a week and tumor volume was calculated as 0.5×length×width. When tumors reached the volume of 200 mm^3, mice were randomized in 11 groups (7-8 mice per treatment group). Mice were treated with the following by intravenous injections: 1) tisotumab vedotin alone at a dose level of 0.5 mg/kg, 1 mg/kg, 2 mg/kg or 4 mg/kg provided on day 0 and day 7 of treatment; 2) cisplatin alone at a dose of 4 mg/kg provided on day 0, day 7 and day 14 of treatment; 3) tisotumab vedotin at a dose level of 0.5 mg/kg, 1 mg/kg, 2 mg/kg or 4 mg/kg provided on day 0 and day 7 of treatment in combination with cisplatin at a dose of 4 mg/kg provided on day 0, day 7 and day 14 of treatment; 4) IgG1 isotype control at a dose of 4 mg/kg provided on day 0 and day 7 of treatment; or 5) IgG1-MMAE control at a dose of 4 mg/kg provided on day 0 and day 7 of treatment. […] Mice were housed in individually ventilated (IVC) cages, four or five mice per cage and identified by ear tags.
To determine whether there were statistically significant differences between tumor volumes in control and treatment groups, tumor volumes in the treatment groups were compared with those in the control group (e.g., treatment groups vs IgG1-MMAE control) using Mann-Whitney analysis at the last day that all groups were intact, i.e., day 38. For survival analysis (tumor volume cut-off was 1,000 mm^3). Mantel-Cox analysis was performed on Kaplan-Meier plots with a cut-off set at tumor volume >1,000 mm^3.

[2] = system: bladder xenograft model BXF1036; experiment: Bladder cancer PDX mouse model, tisotumab vedotin with cisplatin (Example 2); assay type: in vivo, Crl:NMRI-Foxn1^nu nude mice; conditions: single agent; for Tumor growth (FIG. 2A-C): tisotumab vedotin 0.5 mg/kg day 1 intravenously, cisplatin 2 mg/kg day 1 and 8 subcutaneously; for Survival (FIG. 2D): tisotumab vedotin 0.5 mg/kg, cisplatin 2 mg/kg, tumor size cut-off 500 mm^3
Protocol: The in vivo anti-tumor efficacy of tisotumab vedotin in combination with cisplatin was evaluated in A PDX mouse model in female Crl:NMRI-Foxn1^nu (Envigo RMS SARL, France) nude mice (Charles River Discovery Research Services). Xenografts were derived from tumor specimens from cancer patients. Establishment and characterization of the PDX model was performed following primary implantation into nude mice. Tumor xenografts were passaged approximately three to five times until establishment of stable growth patterns. Tumor fragments were obtained from xenografts in serial passage in nude mice. Tumors were cut into fragments of 3-4 mm diameter and placed in phosphate-buffered saline (PBS) until subcutaneous implantation. A bladder cancer PDX model (bladder xenograft model BXF1036; Charles River Discovery Research Services) was used in this experiment. Tumor size was determined by caliper measurement at least two times a week and tumor volume was calculated as 0.52×length×width. When tumors reached the volume of 50-250 mm^3, mice were randomized in 5 groups (10 mice per treatment group). Mice were treated with the following: 1) tisotumab vedotin alone at a dose level of 0.5 mg/kg provided on day 1 of treatment; 2) cisplatin alone at a dose of 2 mg/kg provided on day 1 and day 8 of treatment; 3) tisotumab vedotin at a dose level of 0.5 mg/kg provided on day 1 of treatment in combination with cisplatin at a dose of 2 mg/kg provided on day 1 and day 8 of treatment; 4) IgG1 isotype control at a dose of 0.5 mg/kg provided on day 1 of treatment; or 5) IgG1-MMAE control at a dose of 0.5 mg/kg provided on day 1 of treatment. IgG1 isotype control, IgG1-MMAE control and tisotumab vedotin were each in PBS and injected intravenously. Cisplatin was in 0.9% NaCl and injected subcutaneously. […] Mice were housed in individually ventilated (IVC) cages, with a maximum of five mice per cage, and identified by ear tags.
To determine whether there were statistically significant differences between tumor volumes in control and treatment groups, tumor volumes in the treatment groups were compared with those in the control groups (e.g., IgG1-MMAE control, tisotumab vedotin alone or cisplatin alone) using Mann-Whitney analysis at the last day that all groups were intact, i.e., day 25. Statistical analysis of the difference between groups treated with tisotumab vedotin in combination with cisplatin and groups treated with either tisotumab vedotin alone or cisplatin alone was performed on day 32.
Tumor progression was plotted in a Kaplan-Meier plot, with a cut-off set at a tumor volume >500 mm^3. […]

[3] = system: stage IVB, recurrent, or persistent squamous cell carcinoma of the cervix; conditions: cited from earlier work
[4] = system: PD-L1-positive recurrent or metastatic cervical cancer (r/mCC); conditions: 2 L+; 42% of patients previously treated with bevacizumab; cited from earlier work
[5] = system: HuPrime® cervical xenograft model CV1248 [P3]; experiment: Cervical cancer PDX mouse model, tisotumab vedotin with carboplatin (Example 3); assay type: in vivo, BALB/c nude mice; conditions: for Tumor growth (FIGS. 3A and 3B): single agent, tisotumab vedotin 2 mg/kg, carboplatin 40 or 80 mg/kg, day 0, 7, 14 intravenous
Protocol: The in vivo anti-tumor efficacy of tisotumab vedotin in combination with carboplatin was evaluated in a patient-derived xenograft (PDX) mouse model in female BALB/c nude mice (Crown Bioscience [Taicang] Inc.). Xenografts were derived from tumor specimens from cancer patients. Tumor fragments were obtained from xenografts in serial passage in nude mice. Tumors were cut into fragments of 2-4 mm diameter and placed in phosphate-buffered saline (PBS) until subcutaneous implantation. A cervical cancer PDX model (HuPrime® cervical xenograft model CV1248 [P3]; Crown Bioscience Inc.) was used in this experiment. Tumor size was determined by caliper measurement at least two times a week and tumor volume was calculated as […]. When tumors reached an average volume of 150 mm^3, mice were randomized in 7 groups (10 mice per treatment group). The day of randomization was designated day 0. Mice were treated with the following by intravenous injections: 1) tisotumab vedotin alone at a dose level of 2 mg/kg, provided on day 0, day 7 and day 14; 2) carboplatin (Selleck Chemicals, cat. no. S121511) alone at a dose of 40 mg/kg or 80 mg/kg, provided on day 0, day 7 and day 14; 3) tisotumab vedotin at a dose level of 2 mg/kg, provided on day 0, day 7 and day 14 in combination with carboplatin at a dose of 40 mg/kg or 80 mg/kg, provided on day 0, day 7 and day 14; 4) IgG1 isotype control at a dose of 2 mg/kg provided on day 0, day 7 and day 14; or 5) IgG1-MMAE control at a dose of 2 mg/kg provided on day 0, day7 and day 14. […] Mice were housed in individually ventilated (IVC) cages, up to a maximum of five mice per cage and identified by ear tags. To determine whether there were statistically significant differences between tumor volumes in control and treatment groups, tumor volumes in the treatment groups were compared with those in the control group (e.g., treatment groups vs IgG1-MMAE control) and combination treatment groups were compared with groups treated with either of the compounds alone, using Mann-Whitney analysis at the last day that all groups were intact, i.e., day 20. For analysis of progression-free survival time (tumor size cut-off 750 mm^3), Mantel-Cox analysis was performed on Kaplan-Meier plots.

[6] = system: recurrent or metastatic squamous carcinoma of the uterine cervix; conditions: single agent, cited from earlier work
[7] = system: relapsed, recurrent, and/or metastatic cervical cancer; conditions: cited from earlier work

Compound: N.N.[Cl][Pt][Cl] [Cisplatin]
- Tumor growth (FIG. 1A-C) [1]: inhibited tumor growth
- Survival (FIGS. 1D and 1E) [1]: prolonged survival
- Tumor growth (FIG. 2A-C) [2]: inhibited tumor growth
- Survival (FIG. 2D) [2]: prolonged survival
- median PFS ([3]; P<0.001 between arms): 2.8 months
- Objective responses (OR) ([3]; P=0.002 between arms): 19%
- median survival ([3]; at the time of data cutoff, no difference): 8.8 months
- Objective responses: complete ([3]; in vivo): 6%
- Objective responses: partial ([3]; in vivo): 13%

Compound: pembrolizumab
- objective response rate (ORR) [4]: 14%

Compound: N.N.O=C([O-])C1(C(=O)[O-])CCC1.[Pt+2] [Carboplatin, carboplatin]
- Average tumor volume Mann-Whitney Day 20 P value ([5]; carboplatin 40 mg/kg vs IgG1-MMAE): 0.5787
- Average tumor volume Mann-Whitney Day 20 P value ([5]; carboplatin 80 mg/kg vs IgG1-MMAE): 0.1716
- Tumor growth (FIGS. 3A and 3B) [5]: did not inhibit tumor growth
- overall response rate ([6]; 6/41): 15%
- major toxic effects: anemia [6]: 47%
- major toxic effects: leukopenia [6]: 38%
- major toxic effects: nausea and vomiting [6]: 48%
- major toxic effects: thrombocytopenia [6]: 22%

Compound: Tisotumab vedotin
- Tumor growth (FIG. 1A-C) [1]: efficiently inhibited tumor growth
- Survival (FIGS. 1D and 1E) [1]: prolonged survival
- Tumor growth (FIG. 2A-C) [2]: efficiently inhibited tumor growth
- Survival (FIG. 2D) [2]: prolonged survival
- Tumor growth (FIGS. 3A and 3B) [5]: efficiently inhibited tumor growth
- Average tumor volume Mann-Whitney Day 20 P value ([5]; tisotumab vedotin 2 mg/kg vs IgG1-MMAE): 0.0068
- AEs of grade 1-2 conjunctivitis ([7]; in vivo): frequently reported
- Clinically relevant perturbations in activated partial thromboplastin time (aPTT) or prothrombin time (PT) ([7]; in vivo): have not been observed
- Epistaxis, frequency among bleeding AEs ([7]; in vivo): most common reported AE
- Epistaxis, severity ([7]; in vivo): nearly all of the cases are grade 1
- Peripheral neuropathy, grade of the majority of the reported cases ([7]; in vivo): grade 1-2
- Peripheral neuropathy, share of subjects ([7]; subjects who received treatment with tisotumab vedotin): approximately 35%
